Results published in ChEMBL document CHEMBL1275533, “In vitro antibacterial activity of vertilmicin and its susceptibility to modifications by the recombinant AAC6'-APH2'' enzyme” (2008).
Converted amounts (≈) assume the structure as drawn. The source made the active and inactive calls. The rule behind the calls is not given here.

What was measured:
[1] = test system: Escherichia coli; assay: Antibacterial activity against non-gentamicin-resistant Escherichia coli clinical isolate after 18 hrs by agar dilution method; format: functional
[2] = test system: Citrobacter koseri; assay: Antibacterial activity against non-gentamicin-resistant Citrobacter diversus clinical isolate after 18 hrs by agar dilution method; format: functional
[3] = test system: Proteus mirabilis; assay: Antibacterial activity against non-gentamicin-resistant Proteus mirabilis clinical isolate after 18 hrs by agar dilution method; format: functional
[4] = test system: Serratia marcescens; assay: Antibacterial activity against non-gentamicin-resistant Serratia marcescens clinical isolate after 18 hrs by agar dilution method; format: functional
[5] = test system: Morganella morganii; assay: Antibacterial activity against non-gentamicin-resistant Morganella morganii clinical isolate after 18 hrs by agar dilution method; format: functional
[6] = test system: Citrobacter freundii; assay: Antibacterial activity against non-gentamicin-resistant Citrobacter freundii clinical isolate after 18 hrs by agar dilution method; format: functional
[7] = test system: Haemophilus parainfluenzae; assay: Antibacterial activity against non-gentamicin-resistant Haemophilus parainfluenzae clinical isolate after 18 hrs by agar dilution method; format: functional
[8] = test system: Staphylococcus epidermidis; assay: Antibacterial activity against non-gentamicin-resistant Staphylococcus epidermidis clinical isolate after 18 hrs by agar dilution method; format: functional
[9] = test system: Escherichia coli; assay: Antibacterial activity against non-gentamicin-resistant Escherichia coli clinical isolate assessed as susceptible isolates after 18 hrs by agar dilution method; format: functional
[10] = test system: Klebsiella pneumoniae; assay: Antibacterial activity against non-gentamicin-resistant Klebsiella pneumoniae clinical isolate assessed as susceptible isolates after 18 hrs by agar dilution method; format: functional
[11] = test system: Citrobacter koseri; assay: Antibacterial activity against non-gentamicin-resistant Citrobacter diversus clinical isolate assessed as susceptible isolates after 18 hrs by agar dilution method; format: functional
[12] = test system: Serratia marcescens; assay: Antibacterial activity against non-gentamicin-resistant Serratia marcescens clinical isolate assessed as susceptible isolates after 18 hrs by agar dilution method; format: functional
[13] = test system: Citrobacter freundii; assay: Antibacterial activity against non-gentamicin-resistant Citrobacter freundii clinical isolate assessed as susceptible isolates after 18 hrs by agar dilution method; format: functional
[14] = test system: Providencia rettgeri; assay: Antibacterial activity against non-gentamicin-resistant Proteus rettgeri clinical isolate assessed as susceptible isolates after 18 hrs by agar dilution method; format: functional
[15] = test system: Acinetobacter calcoaceticus; assay: Antibacterial activity against non-gentamicin-resistant Acinetobacter calcoaceticus clinical isolate assessed as susceptible isolates after 18 hrs by agar dilution method; format: functional
[16] = test system: Pseudomonas sp.; assay: Antibacterial activity against non-gentamicin-resistant Pseudomonas spp. clinical isolate assessed as susceptible isolates after 18 hrs by agar dilution method; format: functional
[17] = test system: Haemophilus parainfluenzae; assay: Antibacterial activity against non-gentamicin-resistant Haemophilus parainfluenzae clinical isolate assessed as susceptible isolates after 18 hrs by agar dilution method; format: functional, organism-based
[18] = test system: Staphylococcus aureus; assay: Antibacterial activity against non-gentamicin-resistant Staphylococcus aureus clinical isolate assessed as susceptible isolates after 18 hrs by agar dilution method; format: functional
[19] = test system: Staphylococcus epidermidis; assay: Antibacterial activity against non-gentamicin-resistant Staphylococcus epidermidis clinical isolate assessed as susceptible isolates after 18 hrs by agar dilution method; format: functional
[20] = test system: Escherichia coli; assay: Antibacterial activity against gentamicin-resistant Escherichia coli clinical isolate after 18 hrs by agar dilution method; format: functional
[21] = test system: Enterobacter cloacae; assay: Antibacterial activity against gentamicin-resistant Enterobacter cloacae clinical isolate after 18 hrs by agar dilution method; format: functional
[22] = test system: Klebsiella aerogenes; assay: Antibacterial activity against gentamicin-resistant Enterobacter aerogenes clinical isolate after 18 hrs by agar dilution method; format: functional
[23] = test system: Citrobacter koseri; assay: Antibacterial activity against gentamicin-resistant Citrobacter diversus clinical isolate after 18 hrs by agar dilution method; format: functional
[24] = test system: Proteus mirabilis; assay: Antibacterial activity against gentamicin-resistant Proteus mirabilis clinical isolate after 18 hrs by agar dilution method; format: functional
[25] = test system: Serratia marcescens; assay: Antibacterial activity against gentamicin-resistant Serratia marcescens clinical isolate after 18 hrs by agar dilution method; format: functional
[26] = test system: Morganella morganii; assay: Antibacterial activity against gentamicin-resistant Morganella morganii clinical isolate after 18 hrs by agar dilution method; format: functional
[27] = test system: Citrobacter freundii; assay: Antibacterial activity against gentamicin-resistant Citrobacter freundii clinical isolate after 18 hrs by agar dilution method; format: functional
[28] = test system: Providencia rettgeri; assay: Antibacterial activity against gentamicin-resistant Proteus rettgeri clinical isolate after 18 hrs by agar dilution method; format: functional
[29] = test system: Acinetobacter calcoaceticus; assay: Antibacterial activity against gentamicin-resistant Acinetobacter calcoaceticus clinical isolate after 18 hrs by agar dilution method; format: functional
[30] = test system: Pseudomonas sp.; assay: Antibacterial activity against gentamicin-resistant Pseudomonas spp. clinical isolate after 18 hrs by agar dilution method; format: functional
[31] = test system: Staphylococcus aureus; assay: Antibacterial activity against gentamicin-resistant Staphylococcus aureus clinical isolate after 18 hrs by agar dilution method; format: functional
[32] = test system: Staphylococcus epidermidis; assay: Antibacterial activity against gentamicin-resistant Staphylococcus epidermidis clinical isolate after 18 hrs by agar dilution method; format: functional
[33] = test system: Escherichia coli; assay: Antibacterial activity against gentamicin-resistant Escherichia coli clinical isolate assessed as susceptible isolates after 18 hrs by agar dilution method; format: functional
[34] = test system: Klebsiella pneumoniae; assay: Antibacterial activity against gentamicin-resistant Klebsiella pneumoniae clinical isolate assessed as susceptible isolates after 18 hrs by agar dilution method; format: functional
[35] = test system: Klebsiella aerogenes; assay: Antibacterial activity against gentamicin-resistant Enterobacter aerogenes clinical isolate assessed as susceptible isolates after 18 hrs by agar dilution method; format: functional
[36] = test system: Proteus mirabilis; assay: Antibacterial activity against gentamicin-resistant Proteus mirabilis clinical isolate assessed as susceptible isolates after 18 hrs by agar dilution method; format: functional
[37] = test system: Serratia marcescens; assay: Antibacterial activity against gentamicin-resistant Serratia marcescens clinical isolate assessed as susceptible isolates after 18 hrs by agar dilution method; format: functional
[38] = test system: Morganella morganii; assay: Antibacterial activity against gentamicin-resistant Morganella morganii clinical isolate assessed as susceptible isolates after 18 hrs by agar dilution method; format: functional
[39] = test system: Citrobacter freundii; assay: Antibacterial activity against gentamicin-resistant Citrobacter freundii clinical isolate assessed as susceptible isolates after 18 hrs by agar dilution method; format: functional
[40] = test system: Providencia rettgeri; assay: Antibacterial activity against gentamicin-resistant Proteus rettgeri clinical isolate assessed as susceptible isolates after 18 hrs by agar dilution method; format: functional
[41] = test system: Acinetobacter calcoaceticus; assay: Antibacterial activity against gentamicin-resistant Acinetobacter calcoaceticus clinical isolate assessed as susceptible isolates after 18 hrs by agar dilution method; format: functional
[42] = test system: Pseudomonas aeruginosa; assay: Antibacterial activity against gentamicin-resistant Pseudomonas aeruginosa clinical isolate assessed as susceptible isolates after 18 hrs by agar dilution method; format: functional
[43] = test system: Pseudomonas sp.; assay: Antibacterial activity against gentamicin-resistant Pseudomonas spp. clinical isolate assessed as susceptible isolates after 18 hrs by agar dilution method; format: functional
[44] = test system: Staphylococcus aureus; assay: Antibacterial activity against gentamicin-resistant Staphylococcus aureus clinical isolate assessed as susceptible isolates after 18 hrs by agar dilution method; format: functional
[45] = test system: Staphylococcus epidermidis; assay: Antibacterial activity against gentamicin-resistant Staphylococcus epidermidis clinical isolate assessed as susceptible isolates after 18 hrs by agar dilution method; format: functional
[46] = test system: Enterococcus faecalis; assay: Antibacterial activity against gentamicin-resistant Enterococcus faecalis clinical isolate assessed as susceptible isolates after 18 hrs by agar dilution method; format: functional, organism-based
[47] = test system: Escherichia coli BL21(DE3); assay: Phosphorylation activity of AAC(6')-APH(2'') in Escherichia coli BL21(DE3) assessed as oxidation of NADH by pyruvate kinase

CN[C@@H]1[C@@H](O)[C@@H](O[C@@H]2[C@@H](O)[C@H](O[C@@H]3OC(C(C)N)=CC[C@@H]3N)[C@@H](N)C[C@H]2N)OC[C@]1(C)O (some centres undefined) [VERDAMICIN]
MIC50 [1]: 0.5 mg/L (≈ 1.08 µM)
MIC90 [1]: 0.5 mg/L (≈ 1.08 µM)
MIC [2]: 0.25 mg/L (≈ 0.542 µM)
MIC50 [2]: 0.25 mg/L (≈ 0.542 µM)
MIC90 [2]: 0.5 mg/L (≈ 1.08 µM)
MIC50 [3]: 1 mg/L (≈ 2.17 µM)
MIC90 [3]: 2 mg/L (≈ 4.33 µM)
MIC50 [4]: 0.25 mg/L (≈ 0.542 µM)
MIC90 [4]: 0.5 mg/L (≈ 1.08 µM)
MIC50 [5]: 1 mg/L (≈ 2.17 µM)
MIC90 [5]: 2 mg/L (≈ 4.33 µM)
MIC50 [6]: 0.5 mg/L (≈ 1.08 µM)
MIC90 [6]: 64 mg/L (≈ 139 µM)
MIC50 [7]: 1 mg/L (≈ 2.17 µM)
MIC90 [7]: 2 mg/L (≈ 4.33 µM)
MIC50 [8]: 0.5 mg/L (≈ 1.08 µM)
MIC90 [8]: 32 mg/L (≈ 69.3 µM)
Activity [9]: 98.1%
Activity [10]: 98.8%
Activity [11]: 100%
Activity [12]: 96.3%
Activity [13]: 72.2%
Activity [14]: 100%
Activity [15]: 98%
Activity [16]: 100%
Activity [17]: inactive
Activity [18]: 94.8%
Activity [19]: 75%
MIC50 [20]: 32 mg/L (≈ 69.3 µM)
MIC90 [20]: 128 mg/L (≈ 277 µM)
MIC50 [21]: 128 mg/L (≈ 277 µM)
MIC90 [21]: > 128 mg/L
MIC50 [22]: > 128 mg/L
MIC90 [22]: > 128 mg/L
MIC50 [23]: > 128 mg/L
MIC90 [23]: > 128 mg/L
MIC50 [24]: > 128 mg/L
MIC90 [24]: > 128 mg/L
MIC50 [25]: > 128 mg/L
MIC90 [25]: > 128 mg/L
MIC50 [26]: 64 mg/L (≈ 139 µM)
MIC90 [26]: 128 mg/L (≈ 277 µM)
MIC50 [27]: 32 mg/L (≈ 69.3 µM)
MIC90 [27]: > 128 mg/L
MIC50 [28]: 32 mg/L (≈ 69.3 µM)
MIC90 [28]: 128 mg/L (≈ 277 µM)
MIC50 [29]: > 128 mg/L
MIC90 [29]: > 128 mg/L
MIC50 [30]: 128 mg/L (≈ 277 µM)
MIC90 [30]: > 128 mg/L
MIC50 [31]: 32 mg/L (≈ 69.3 µM)
MIC90 [31]: > 128 mg/L
MIC50 [32]: 8 mg/L (≈ 17.3 µM)
MIC90 [32]: > 128 mg/L
Activity [33]: 3.5%
Activity [34]: 10.7%
Activity [35]: 0%
Activity [36]: 18.2%
Activity [37]: 10%
Activity [38]: 8.3%
Activity [39]: 26.3%
Activity [40]: 20%
Activity [41]: 16%
Activity [42]: 2.9%
Activity [43]: 3.8%
Activity [44]: 5.6%
Activity [45]: 50%
Activity [46]: inactive
Km [47]: 41.4 µM
